Each structure is given as a SMILES string.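 The compound was tested at five concentrations on cells cultured in 96-well plates, with a 48-hour exposure period. GI50 = concentration required for 50% inhibition of growth. TGI: concentration producing complete growth inhibition.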

Results on 23 compounds are retold here after PubChem BioAssay (NCI).

The first experiment has as its system TK-10 renal. In words: NCI tumour cell line growth inhibition, 48 h.
For the compound `CCOC(=O)C1(C)CCC(C(C(=O)O)C(=O)O)CC1=O` (stereo unspecified), the TGI is above 100 µM.
Same read-out and setting: with `COC(=O)C1=C(C(=O)OC)C2(c3ccccc3)OC1(c1ccccc1)c1cc3ccccc3cc12` the figure was 3.56 µM.
With `[O]=[V]([OH])([OH])[OH]`, the GI50 is above 100 µM and the TGI was above 100 µM.
Compound `CC1NOC(=O)C1N=Nc1ccc(Cl)cc1Cl` (stereo unspecified) showed a TGI of 62.7 µM.
As for `COc1ccc(Nc2cnc3cc(N)cc(N)c3n2)cc1`, the GI50 is 23.7 µM and the TGI was found to be 76.2 µM.
The matching figures for `COc1cc(/C=C/c2cc(/C=C/c3ccc(O)c(OC)c3)n(C(=O)c3ccccc3Br)n2)ccc1O`: 3.85 µM and 33 µM.
Compound `O=C1NC(=O)C2C(=O)NC(=O)C1C2Cc1ccco1` (stereo unspecified) returned a TGI above 100 µM.
As for `S=C1SCN(Cc2ccccc2)CN1Cc1ccco1`, the GI50 was 5.79 µM and the TGI amounted to 18.8 µM.
The matching figures for `O=C(c1cccs1)c1c(C(F)(F)F)n([O-])c2cc(Cl)c(Cl)cc2[n+]1=O`: 1.55 µM and 2.95 µM.
Turning to `COc1cc(-c2nccc3[nH]c(-c4ccc5cc[nH]c5c4)nc23)cc(OC)c1OC`, the GI50 was 1.13 µM and the TGI amounted to 7.88 µM.
For `CC(=O)Nc1ccc(C2CC(c3ccc([N+](=O)[O-])cc3)=Nc3ccccc3S2=O)cc1` (stereo unspecified), the TGI was 64.7 µM.
Take `COCCOC1=C(Cl)C(=O)c2ccccc2C1=O`: the GI50 is 2.83 µM and the TGI was 10.8 µM.
In the case of `CN1CCN(c2c(F)cc(NC3=C(Cl)C(=O)c4ncccc4C3=O)cc2F)CC1`, the GI50 was 1.93 µM and the TGI was 3.67 µM.
In the same order, the values of `Cc1cccc(Cn2cc(CO)c3cnccc32)c1` are 64.7 µM and above 100 µM.
`O=C(CCCC(=O)Nc1ccc(Cl)cc1Cl)CC(=O)c1ccc2ccccc2c1` showed a TGI above 100 µM.
In turn, `OC(c1ccccc1Br)(c1ccccc1Br)C(F)(F)F` registered a TGI above 100 µM.
On the same count and under the same terms, the figure for `CC(=O)OC1COC(N2CCc3cc([N+](=O)[O-])ccc32)C(OC(C)=O)C1OC(C)=O` (stereo unspecified) is above 100 µM; for `CCOC(=O)C1S(=O)(=O)OCCOS1(=O)=O` it is above 100 µM; for `COc1ccc(C(O)c2cc3c(N)c(C(=O)Nc4cccc5ccccc45)sc3nc2C)cc1` (stereo unspecified) it is above 100 µM.
As for `Cc1nc2ccccc2c(=O)n1/N=C(\N=Nc1ccccc1Cl)c1ccccc1Cl`, the TGI was above 100 µM.
`CCCC(=O)CC(C)C(=O)C(=O)NC12CC3CC(CC(C3)C1)C2` (stereo unspecified) came in with a TGI above 100 µM.
On to `CCCCCC/C=C\CCCCCCCCC(=O)c1cccc(OC)c1OC`, for which the TGI is above 100 µM.

The next experiment relates to 786-0 renal. In words: NCI tumour cell line growth inhibition, 48 h.
`CCOC(=O)C1(C)CCC(C(C(=O)O)C(=O)O)CC1=O` (stereo unspecified) registered a TGI above 100 µM.
Compound `COC(=O)C1=C(C(=O)OC)C2(c3ccccc3)OC1(c1ccccc1)c1cc3ccccc3cc12` registered a TGI of 2.7 µM.
As to `[O]=[V]([OH])([OH])[OH]`, the GI50 is above 100 µM and the TGI is above 100 µM.
`CC1NOC(=O)C1N=Nc1ccc(Cl)cc1Cl` (stereo unspecified): the TGI was determined as 41.9 µM.
Turning to `COc1ccc(Nc2cnc3cc(N)cc(N)c3n2)cc1`, the GI50 is 18.2 µM and the TGI was found to be 42.9 µM.
The matching figures for `COc1cc(/C=C/c2cc(/C=C/c3ccc(O)c(OC)c3)n(C(=O)c3ccccc3Br)n2)ccc1O`: 3.19 µM and above 100 µM.
For `O=C1NC(=O)C2C(=O)NC(=O)C1C2Cc1ccco1` (stereo unspecified), the TGI is above 100 µM.
With `S=C1SCN(Cc2ccccc2)CN1Cc1ccco1`, the GI50 was 3.5 µM and the TGI is 14.4 µM.
In the case of `O=C(c1cccs1)c1c(C(F)(F)F)n([O-])c2cc(Cl)c(Cl)cc2[n+]1=O`, the GI50 was 0.756 µM and the TGI was determined as 1.91 µM.
The matching figures for `COc1cc(-c2nccc3[nH]c(-c4ccc5cc[nH]c5c4)nc23)cc(OC)c1OC`: below 0.01 µM and 2.03 µM.
`COc1ccc2nc(NC(=O)C(=O)CC(=O)c3ccc([N+](=O)[O-])cc3)sc2c1`: the TGI is above 100 µM.
As to `CC(=O)Nc1ccc(C2CC(c3ccc([N+](=O)[O-])cc3)=Nc3ccccc3S2=O)cc1` (stereo unspecified), the TGI came out at 22.6 µM.
As to `COCCOC1=C(Cl)C(=O)c2ccccc2C1=O`, the GI50 was 6.26 µM and the TGI amounted to 18.8 µM.
The matching figures for `CN1CCN(c2c(F)cc(NC3=C(Cl)C(=O)c4ncccc4C3=O)cc2F)CC1`: 1.84 µM and 3.44 µM.
For the compound `Cc1cccc(Cn2cc(CO)c3cnccc32)c1`, the GI50 is above 100 µM and the TGI was above 100 µM.
As to `O=C(CCCC(=O)Nc1ccc(Cl)cc1Cl)CC(=O)c1ccc2ccccc2c1`, the TGI is above 100 µM.
Same read-out and setting: with `OC(c1ccccc1Br)(c1ccccc1Br)C(F)(F)F` the figure was 35.5 µM; with `CC(=O)OC1COC(N2CCc3cc([N+](=O)[O-])ccc32)C(OC(C)=O)C1OC(C)=O` (stereo unspecified), above 100 µM; with `CCOC(=O)C1S(=O)(=O)OCCOS1(=O)=O`, above 100 µM.
As for `COc1ccc(C(O)c2cc3c(N)c(C(=O)Nc4cccc5ccccc45)sc3nc2C)cc1` (stereo unspecified), the GI50 was 0.499 µM.
`Cc1nc2ccccc2c(=O)n1/N=C(\N=Nc1ccccc1Cl)c1ccccc1Cl` had a TGI above 100 µM.
`CCCC(=O)CC(C)C(=O)C(=O)NC12CC3CC(CC(C3)C1)C2` (stereo unspecified) registered a TGI above 100 µM.
On the same count and under the same terms, with `CCCCCC/C=C\CCCCCCCCC(=O)c1cccc(OC)c1OC` the figure was above 100 µM.

For another experiment, the system named is K-562 leukemia. In words: NCI tumour cell line growth inhibition, 48 h.
`COC(=O)C1=C(C(=O)OC)C2(c3ccccc3)OC1(c1ccccc1)c1cc3ccccc3cc12` returned a TGI of 6.06 µM.
Regarding `[O]=[V]([OH])([OH])[OH]`, the GI50 was above 100 µM and the TGI was above 100 µM.
For `CC1NOC(=O)C1N=Nc1ccc(Cl)cc1Cl` (stereo unspecified), the TGI is 82.5 µM.
Regarding `COc1ccc(Nc2cnc3cc(N)cc(N)c3n2)cc1`, the GI50 was 5.69 µM and the TGI is above 100 µM.
As for `COc1cc(/C=C/c2cc(/C=C/c3ccc(O)c(OC)c3)n(C(=O)c3ccccc3Br)n2)ccc1O`, the GI50 was 1.45 µM and the TGI is above 100 µM.
